What all share (assay): Kinase selectivity, Z'-LYTE
What all share (type): biochemical

The target in one test is T1, INSR (Homo sapiens, UniProt P06213).
T1 construct: purchased Invitrogen (Life Technologies) SelectScreen Z'-LYTE
As to the method:
(§1) Kinase selectivity was assessed using a commercial service that employs a fluorescence-based, coupled-enzyme assay based on the differential sensitivity of phosphorylated and non-phosphorylated peptides to proteolytic cleavage (Invitrogen, Z'-LYTE®). This assay uses recombinant protein kinases and assay mixed optimized for each particular kinase (http://www.lifetechnologies.com/us/en/home/life-science/drug-discovery/target-and-lead-identification-and-validation /kinasebiology/kinase-activity-assays/z-lyte.html).

In the next test the target is T2, MAPK1 (ERK2) (Homo sapiens, UniProt P28482).
T2 construct: purchased Invitrogen (Life Technologies) SelectScreen Z'-LYTE
As to the method: as §1

The target in another test is T3, ROCK1 (Homo sapiens, UniProt Q13464).
T3 construct: purchased Invitrogen (Life Technologies) SelectScreen Z'-LYTE
As to the method: as §1

For another test, the target named is T4, MAPK11 (p38 beta) (Homo sapiens, UniProt Q15759).
T4 construct: purchased Invitrogen (Life Technologies) SelectScreen Z'-LYTE
As to the method: as §1

A further test addresses T5, CDK5/p35 (Homo sapiens, UniProt Q00535).
T5 construct: purchased Invitrogen (Life Technologies) SelectScreen Z'-LYTE
As to the method: as §1

A further test deals with T6, PRKCE (PKC epsilon) (Homo sapiens, UniProt Q02156).
T6 construct: purchased Invitrogen (Life Technologies) SelectScreen Z'-LYTE
T6 sequence (Q02156 1-737): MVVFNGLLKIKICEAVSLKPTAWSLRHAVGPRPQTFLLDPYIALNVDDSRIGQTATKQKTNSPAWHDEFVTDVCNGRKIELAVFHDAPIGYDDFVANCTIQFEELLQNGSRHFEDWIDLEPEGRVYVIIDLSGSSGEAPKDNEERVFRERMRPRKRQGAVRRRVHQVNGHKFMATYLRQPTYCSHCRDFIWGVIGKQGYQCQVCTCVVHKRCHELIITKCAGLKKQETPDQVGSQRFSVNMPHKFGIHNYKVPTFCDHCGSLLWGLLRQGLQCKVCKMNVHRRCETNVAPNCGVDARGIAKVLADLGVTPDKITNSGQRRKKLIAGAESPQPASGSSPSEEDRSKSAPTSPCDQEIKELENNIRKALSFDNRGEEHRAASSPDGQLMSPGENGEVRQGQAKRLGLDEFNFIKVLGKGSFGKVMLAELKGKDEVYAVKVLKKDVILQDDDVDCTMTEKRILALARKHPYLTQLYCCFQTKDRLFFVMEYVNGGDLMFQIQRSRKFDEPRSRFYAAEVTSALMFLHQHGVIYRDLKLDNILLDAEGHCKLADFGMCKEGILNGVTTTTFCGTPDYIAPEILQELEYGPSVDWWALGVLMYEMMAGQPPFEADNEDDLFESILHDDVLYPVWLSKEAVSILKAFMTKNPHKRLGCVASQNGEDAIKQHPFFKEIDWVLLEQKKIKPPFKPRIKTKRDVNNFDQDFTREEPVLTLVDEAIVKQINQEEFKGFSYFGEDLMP
As to the method:
as §1

Another test has as its target T7, CSNK1G2 (CK1 gamma 2) (Homo sapiens, UniProt P78368).
T7 construct: purchased Invitrogen (Life Technologies) SelectScreen Z'-LYTE
As to the method:
as §1

Another test deals with T8, TEK (Tie2) (Homo sapiens, UniProt Q02763).
T8 construct: purchased Invitrogen (Life Technologies) SelectScreen Z'-LYTE
As to the method:
as §1

In another test the target is T9, PRKACA (PKA) (Homo sapiens, UniProt P17612).
T9 construct: purchased Invitrogen (Life Technologies) SelectScreen Z'-LYTE
As to the method:
as §1

A further test concerns the target T10, STK22D (TSSK1) (Homo sapiens, UniProt Q9BXA7).
T10 construct: purchased Invitrogen (Life Technologies) SelectScreen Z'-LYTE
T10 sequence (Q9BXA7 1-367): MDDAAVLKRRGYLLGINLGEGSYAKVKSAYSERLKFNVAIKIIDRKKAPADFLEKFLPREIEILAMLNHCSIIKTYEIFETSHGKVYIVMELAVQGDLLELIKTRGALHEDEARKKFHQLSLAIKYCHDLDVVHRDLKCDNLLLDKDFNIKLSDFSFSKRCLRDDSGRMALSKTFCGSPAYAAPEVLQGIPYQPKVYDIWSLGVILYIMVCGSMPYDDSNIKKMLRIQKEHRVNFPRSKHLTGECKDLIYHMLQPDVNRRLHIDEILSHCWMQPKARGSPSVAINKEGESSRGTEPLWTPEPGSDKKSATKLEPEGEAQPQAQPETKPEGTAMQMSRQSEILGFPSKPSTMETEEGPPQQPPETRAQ
As to the method: as §1

The target of the next test is T11, PTK1 (FAK) (Homo sapiens, UniProt Q05397).
T11 construct: purchased Invitrogen (Life Technologies) SelectScreen Z'-LYTE
As to the method: as §1

The target in the next test is T12, BRAF (Homo sapiens, UniProt P15056).
T12 construct: purchased Invitrogen (Life Technologies) SelectScreen Z'-LYTE
As to the method: as §1

A further test deals with T13, RP88KB1 (p70S6K) (Homo sapiens, UniProt P23443).
T13 construct: purchased Invitrogen (Life Technologies) SelectScreen Z'-LYTE
As to the method:
as §1

For a further test, the target named is T14, AXL (Homo sapiens, UniProt P30530).
T14 construct: purchased Invitrogen (Life Technologies) SelectScreen Z'-LYTE
T14 sequence (P30530 26-894): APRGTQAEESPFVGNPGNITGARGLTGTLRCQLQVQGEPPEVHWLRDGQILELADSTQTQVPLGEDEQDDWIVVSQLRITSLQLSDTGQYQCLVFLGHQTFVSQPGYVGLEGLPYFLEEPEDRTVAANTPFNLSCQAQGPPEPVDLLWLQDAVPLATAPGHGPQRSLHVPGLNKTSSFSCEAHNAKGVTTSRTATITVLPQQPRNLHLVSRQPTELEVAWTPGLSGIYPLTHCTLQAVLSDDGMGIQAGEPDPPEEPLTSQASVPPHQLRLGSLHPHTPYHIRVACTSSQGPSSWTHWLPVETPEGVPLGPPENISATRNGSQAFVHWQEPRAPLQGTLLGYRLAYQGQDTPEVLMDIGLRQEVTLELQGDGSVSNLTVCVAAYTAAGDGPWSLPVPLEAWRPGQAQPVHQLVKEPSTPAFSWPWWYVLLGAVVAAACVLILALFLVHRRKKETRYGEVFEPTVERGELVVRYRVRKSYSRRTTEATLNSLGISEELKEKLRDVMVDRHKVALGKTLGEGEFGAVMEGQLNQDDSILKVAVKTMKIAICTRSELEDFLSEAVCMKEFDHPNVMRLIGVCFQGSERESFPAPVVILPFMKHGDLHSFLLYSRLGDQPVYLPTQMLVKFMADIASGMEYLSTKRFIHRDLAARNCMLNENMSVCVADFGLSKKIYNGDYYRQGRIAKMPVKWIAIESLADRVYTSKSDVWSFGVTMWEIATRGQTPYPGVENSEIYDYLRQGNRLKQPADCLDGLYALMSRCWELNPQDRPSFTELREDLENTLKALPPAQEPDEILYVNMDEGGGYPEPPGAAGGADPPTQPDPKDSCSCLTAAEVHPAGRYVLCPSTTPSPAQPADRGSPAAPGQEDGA
As to the method:
as §1

The target of another test is T15, AKT1 (PKB alpha) (Homo sapiens, UniProt P31749).
T15 construct: purchased Invitrogen (Life Technologies) SelectScreen Z'-LYTE
As to the method:
as §1

The text below walks through data of paper PMC4385830, “Group I Paks as therapeutic targets in NF2-deficient meningioma” (Oncotarget, 2015).

T1 sequence (P06213 28-1382): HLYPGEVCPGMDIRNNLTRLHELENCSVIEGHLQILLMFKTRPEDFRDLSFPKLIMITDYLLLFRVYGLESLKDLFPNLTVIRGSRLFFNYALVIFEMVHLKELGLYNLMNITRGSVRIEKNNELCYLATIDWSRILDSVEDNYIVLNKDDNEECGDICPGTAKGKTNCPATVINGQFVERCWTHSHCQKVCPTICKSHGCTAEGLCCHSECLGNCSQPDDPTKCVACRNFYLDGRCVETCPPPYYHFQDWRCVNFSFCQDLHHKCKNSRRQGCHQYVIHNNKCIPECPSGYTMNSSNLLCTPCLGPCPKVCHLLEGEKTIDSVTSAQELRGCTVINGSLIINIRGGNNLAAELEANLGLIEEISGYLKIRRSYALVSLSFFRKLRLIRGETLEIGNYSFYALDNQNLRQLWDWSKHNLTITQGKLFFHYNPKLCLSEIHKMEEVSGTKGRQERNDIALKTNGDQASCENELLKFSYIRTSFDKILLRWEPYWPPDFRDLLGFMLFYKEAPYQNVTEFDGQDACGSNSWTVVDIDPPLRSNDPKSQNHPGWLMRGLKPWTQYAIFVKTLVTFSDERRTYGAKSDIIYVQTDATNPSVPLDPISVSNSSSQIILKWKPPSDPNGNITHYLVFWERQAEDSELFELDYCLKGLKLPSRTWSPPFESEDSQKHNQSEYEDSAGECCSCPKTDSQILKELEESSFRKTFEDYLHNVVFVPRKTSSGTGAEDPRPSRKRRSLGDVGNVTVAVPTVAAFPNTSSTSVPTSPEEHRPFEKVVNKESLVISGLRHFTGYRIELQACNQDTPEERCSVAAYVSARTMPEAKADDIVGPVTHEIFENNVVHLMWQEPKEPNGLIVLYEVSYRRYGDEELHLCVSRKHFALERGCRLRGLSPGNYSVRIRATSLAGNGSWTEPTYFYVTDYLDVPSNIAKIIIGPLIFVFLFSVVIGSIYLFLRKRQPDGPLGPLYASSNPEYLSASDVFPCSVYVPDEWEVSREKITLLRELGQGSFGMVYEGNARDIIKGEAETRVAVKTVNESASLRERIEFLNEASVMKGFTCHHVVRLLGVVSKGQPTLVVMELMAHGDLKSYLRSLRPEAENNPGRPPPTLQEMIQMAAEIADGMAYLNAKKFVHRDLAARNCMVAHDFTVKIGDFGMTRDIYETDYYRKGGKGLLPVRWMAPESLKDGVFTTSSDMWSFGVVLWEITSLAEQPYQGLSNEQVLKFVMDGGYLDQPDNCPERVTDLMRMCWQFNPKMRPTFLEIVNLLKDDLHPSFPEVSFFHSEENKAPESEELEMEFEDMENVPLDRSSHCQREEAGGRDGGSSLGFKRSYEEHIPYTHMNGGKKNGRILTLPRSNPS
T12 sequence (P15056 whole entry): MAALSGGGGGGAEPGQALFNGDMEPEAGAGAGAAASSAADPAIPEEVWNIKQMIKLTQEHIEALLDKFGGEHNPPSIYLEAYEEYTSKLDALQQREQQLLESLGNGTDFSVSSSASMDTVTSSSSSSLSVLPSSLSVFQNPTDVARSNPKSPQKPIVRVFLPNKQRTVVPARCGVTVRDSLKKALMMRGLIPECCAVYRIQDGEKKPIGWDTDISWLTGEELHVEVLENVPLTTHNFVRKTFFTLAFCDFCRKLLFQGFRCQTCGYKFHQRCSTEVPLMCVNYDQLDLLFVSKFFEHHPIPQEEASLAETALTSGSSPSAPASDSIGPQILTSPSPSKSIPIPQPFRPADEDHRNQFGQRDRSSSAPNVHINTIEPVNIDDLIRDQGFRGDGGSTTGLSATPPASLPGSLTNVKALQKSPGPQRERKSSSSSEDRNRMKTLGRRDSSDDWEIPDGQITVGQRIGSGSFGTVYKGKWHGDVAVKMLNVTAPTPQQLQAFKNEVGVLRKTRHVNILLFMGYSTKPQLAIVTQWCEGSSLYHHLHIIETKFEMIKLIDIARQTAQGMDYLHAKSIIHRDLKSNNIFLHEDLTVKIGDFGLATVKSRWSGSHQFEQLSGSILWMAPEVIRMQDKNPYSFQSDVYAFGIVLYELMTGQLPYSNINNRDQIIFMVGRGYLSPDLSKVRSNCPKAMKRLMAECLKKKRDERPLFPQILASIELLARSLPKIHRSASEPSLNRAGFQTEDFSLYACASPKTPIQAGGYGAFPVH
T2 sequence (P28482 whole entry): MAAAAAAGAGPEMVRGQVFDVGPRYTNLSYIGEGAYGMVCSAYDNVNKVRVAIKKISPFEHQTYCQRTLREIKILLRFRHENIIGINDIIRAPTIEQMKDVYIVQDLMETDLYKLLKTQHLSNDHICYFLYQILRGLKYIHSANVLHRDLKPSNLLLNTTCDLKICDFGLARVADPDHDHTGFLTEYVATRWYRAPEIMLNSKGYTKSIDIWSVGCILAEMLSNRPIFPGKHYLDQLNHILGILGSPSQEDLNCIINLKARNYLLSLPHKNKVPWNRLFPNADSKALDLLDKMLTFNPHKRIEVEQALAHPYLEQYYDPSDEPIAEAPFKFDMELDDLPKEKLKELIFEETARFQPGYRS
T3 sequence (Q13464 whole entry): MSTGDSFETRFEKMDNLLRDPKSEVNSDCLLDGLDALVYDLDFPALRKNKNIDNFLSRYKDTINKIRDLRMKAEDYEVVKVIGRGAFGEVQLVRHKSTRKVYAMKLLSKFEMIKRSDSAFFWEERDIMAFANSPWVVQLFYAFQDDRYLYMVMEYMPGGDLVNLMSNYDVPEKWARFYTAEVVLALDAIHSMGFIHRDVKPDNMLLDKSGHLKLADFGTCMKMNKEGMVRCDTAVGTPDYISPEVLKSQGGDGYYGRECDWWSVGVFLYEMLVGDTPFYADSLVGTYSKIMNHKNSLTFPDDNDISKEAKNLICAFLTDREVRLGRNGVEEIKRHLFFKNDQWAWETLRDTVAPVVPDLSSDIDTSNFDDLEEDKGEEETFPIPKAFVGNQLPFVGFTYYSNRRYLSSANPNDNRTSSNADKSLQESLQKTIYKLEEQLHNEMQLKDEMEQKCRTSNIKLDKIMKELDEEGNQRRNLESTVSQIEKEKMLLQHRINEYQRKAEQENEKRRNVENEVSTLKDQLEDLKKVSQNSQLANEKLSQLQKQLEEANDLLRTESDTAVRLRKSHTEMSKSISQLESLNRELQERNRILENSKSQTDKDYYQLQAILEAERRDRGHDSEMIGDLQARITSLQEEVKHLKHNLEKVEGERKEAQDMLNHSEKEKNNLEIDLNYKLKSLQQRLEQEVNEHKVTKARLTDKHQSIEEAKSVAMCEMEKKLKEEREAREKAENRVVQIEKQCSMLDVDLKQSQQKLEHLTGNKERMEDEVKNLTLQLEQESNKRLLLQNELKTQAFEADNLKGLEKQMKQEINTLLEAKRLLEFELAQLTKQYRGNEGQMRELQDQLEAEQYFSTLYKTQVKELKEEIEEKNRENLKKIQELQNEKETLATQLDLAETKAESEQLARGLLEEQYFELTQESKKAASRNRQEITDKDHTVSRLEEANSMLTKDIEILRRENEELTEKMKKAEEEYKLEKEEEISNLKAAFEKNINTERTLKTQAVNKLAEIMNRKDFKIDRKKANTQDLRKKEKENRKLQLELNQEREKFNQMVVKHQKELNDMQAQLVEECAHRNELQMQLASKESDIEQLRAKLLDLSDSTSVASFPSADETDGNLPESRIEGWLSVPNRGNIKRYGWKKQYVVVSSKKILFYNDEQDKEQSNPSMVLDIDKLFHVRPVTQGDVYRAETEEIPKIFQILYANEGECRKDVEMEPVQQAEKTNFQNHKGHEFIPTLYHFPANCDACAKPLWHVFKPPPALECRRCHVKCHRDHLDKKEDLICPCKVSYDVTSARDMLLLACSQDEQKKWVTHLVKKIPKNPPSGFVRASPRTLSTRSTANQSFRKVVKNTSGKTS
T5 sequence (Q00535 whole entry): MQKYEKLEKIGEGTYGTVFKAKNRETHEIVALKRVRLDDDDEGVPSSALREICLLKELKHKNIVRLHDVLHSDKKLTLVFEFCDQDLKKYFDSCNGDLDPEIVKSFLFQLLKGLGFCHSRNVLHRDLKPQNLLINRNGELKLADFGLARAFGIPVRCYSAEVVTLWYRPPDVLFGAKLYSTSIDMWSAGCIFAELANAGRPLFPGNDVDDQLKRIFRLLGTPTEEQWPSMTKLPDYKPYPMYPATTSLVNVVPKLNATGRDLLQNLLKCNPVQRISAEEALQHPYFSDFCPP
T5 sequence (Q15078 whole entry partner): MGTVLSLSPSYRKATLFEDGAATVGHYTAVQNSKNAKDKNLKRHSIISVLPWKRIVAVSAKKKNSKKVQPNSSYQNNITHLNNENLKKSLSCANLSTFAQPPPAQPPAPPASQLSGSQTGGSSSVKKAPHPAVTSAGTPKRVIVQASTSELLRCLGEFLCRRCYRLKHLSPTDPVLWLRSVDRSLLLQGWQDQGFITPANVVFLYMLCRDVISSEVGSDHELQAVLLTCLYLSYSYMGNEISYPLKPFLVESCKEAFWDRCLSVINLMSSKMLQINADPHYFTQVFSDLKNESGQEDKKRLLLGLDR
T13 sequence (P23443 whole entry): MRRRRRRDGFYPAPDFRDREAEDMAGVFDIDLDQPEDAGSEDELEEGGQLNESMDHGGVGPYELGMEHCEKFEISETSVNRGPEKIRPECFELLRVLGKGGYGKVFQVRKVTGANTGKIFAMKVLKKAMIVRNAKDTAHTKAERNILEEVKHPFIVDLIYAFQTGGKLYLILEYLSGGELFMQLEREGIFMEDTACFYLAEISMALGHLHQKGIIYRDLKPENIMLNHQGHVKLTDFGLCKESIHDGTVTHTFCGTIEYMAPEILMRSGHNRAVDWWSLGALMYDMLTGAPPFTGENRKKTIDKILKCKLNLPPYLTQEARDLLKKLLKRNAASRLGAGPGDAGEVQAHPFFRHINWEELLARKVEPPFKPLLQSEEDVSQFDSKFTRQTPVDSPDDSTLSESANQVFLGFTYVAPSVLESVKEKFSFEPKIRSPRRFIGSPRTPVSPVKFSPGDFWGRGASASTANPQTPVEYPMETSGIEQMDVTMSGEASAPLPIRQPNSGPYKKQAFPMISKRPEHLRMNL

Take `CCn1c(=O)c(-c2ccc(-c3noc(C)n3)cc2Cl)cc2cnc(Nc3ccc(C4CCN(C)CC4)cc3)nc21` [Frax716]: the “% inhibition of activity” value amounted to 14% on INSR; 7% on MAPK1 (ERK2); 2% on ROCK1; 2% on MAPK11 (p38 beta); 2% at CDK5/p35; 14% at PRKCE (PKC epsilon). The “% inhibition of activity” value on CSNK1G2 (CK1 gamma 2) stood at 3%; at TEK (Tie2) it was 98%; at PRKACA (PKA), 7%; at STK22D (TSSK1), 5%; on PTK1 (FAK), 22%; at BRAF, 72%. Further, the “% inhibition of activity” value at RP88KB1 (p70S6K) was 1%; at AXL, 45%; at AKT1 (PKB alpha), 1%.

In the case of `CCn1c(=O)c(-c2ccc(-c3cncc(C)n3)cc2Cl)cc2cnc(NCCC3CCN(C)CC3)nc21` [Frax1036], the “% inhibition of activity” value on INSR was 0%; on MAPK1 (ERK2), 5%; on ROCK1 it was −2%; at MAPK11 (p38 beta), 6%; at CDK5/p35 it was 7%; at PRKCE (PKC epsilon), 25%. For the same molecule, the “% inhibition of activity” value on CSNK1G2 (CK1 gamma 2) turned out to be 3%; on TEK (Tie2) it was 2%; at PRKACA (PKA), 1%; at STK22D (TSSK1) it was 12%; on PTK1 (FAK), 9%; on BRAF it was 7%. Moreover, the “% inhibition of activity” value at RP88KB1 (p70S6K) stood at 10%; on AXL it was 21%; on AKT1 (PKB alpha), 0%.

Consider `Cc1nc(Nc2[nH]nc3c2CN(C(=O)N[C@H](CN(C)C)c2ccccc2)C3(C)C)c2sccc2n1` [PF3758309, reference compound], for which the “% inhibition of activity” value on INSR came to 7%; at MAPK1 (ERK2), 23%; on ROCK1, 5%; on MAPK11 (p38 beta), 8%; on CDK5/p35, 15%; at PRKCE (PKC epsilon), 62%. The “% inhibition of activity” value on CSNK1G2 (CK1 gamma 2) was found to be 9%; on TEK (Tie2), 0%; on PRKACA (PKA) it was 100%; on STK22D (TSSK1), 90%; at PTK1 (FAK) it was 38%; on BRAF, 52%. Moreover, the figures for the “% inhibition of activity” value on RP88KB1 (p70S6K), on AXL and at AKT1 (PKB alpha) were 79%, 67% and 16%, respectively.
